Series [1] deals with Mammalian Erythrocyte Micronucleus. Put plainly: In vivo test for clastogenic effects, Mammalian Erythrocyte Micronucleus Test (OECD 474). From the text: In vivo test for clastogenic effects performed on 3,6,7-trimethyl-2,6-octadienenitrile and 3,7-dimethyl-2,6-octadienenitrile under the conditions required by the standard test protocol for Mammalian Erythrocyte Micronucleus Test (OECD 474, OECD web site http://lysander.sourceoecd.org/v1=155221/c1=19/nw=1/rpsv/ij/oecdjournals/1607310x/v1n 4/s39/p1) gave the following results: • 3,6,7-trimethyl-2,6-octadienenitrile: the test was negative (i.e. no perceived toxicity) in the dose range between 200-1200 mg/kg. • 3,7-dimethyl-2,6-octadienenitrile: the test was positive (i.e. perceived toxicity) in the dose range between 500-1250 mg/kg (overlapping the dose range of the invention compound herein above). This ingredient has been banned for its clastogenic effect.

For series [2] the following is noted: reason for ban; cited from earlier work.

As to `CC(=CC#N)CCC(C)=C(C)C` [3,6,7-trimethyl-2,6-octadienenitrile], the “Clastogenicity (induction of chromosome-damages)” value in series [1] (E and Z isomers or a mixture thereof) was “not clastogenic”. Further, in series [1] (dose range between 200-1200 mg/kg), the “Mammalian Erythrocyte Micronucleus Test result (clastogenic effects)” value was “negative”.

For the molecule `CC(C)=CCCC(C)=CC#N` [3,7-dimethyl-2,6-octadienenitrile], the “Mammalian Erythrocyte Micronucleus Test result (clastogenic effects)” value in series [1] (dose range between 500-1250 mg/kg) is listed as “positive”. For the same molecule, in series [2], the Mutagenicity result is listed as “mutagenic”.

(Values after patent US8313736B2, “Chemically stable ingredients as lemon odorant” (Firmenich SA, priority 2008, dated 2012).)
